Test results published in DBAASP.
Converted amounts (≈) assume the structure as drawn.

Legend:
Assay in all cases: ≥ marks a high value that may be exact or a test limit, other limits are often not marked, values filed in µg/mL are converted to µM
[1] = tested on: Candida albicans NCYC 1467
[2] = tested on: Enterococcus faecalis NCTC 12697
[3] = tested on: Escherichia coli NCTC 10418
[4] = tested on: Klebsiella pneumoniae ATCC 43816
[5] = tested on: Pseudomonas aeruginosa ATCC 27853
[6] = tested on: Staphylococcus aureus NCTC 10788
[7] = tested on: Staphylococcus aureus NCTC 12493
[8] = tested on: Escherichia coli ATCC 25922
[9] = tested on: Listeria monocytogenes EGD
[10] = tested on: Staphylococcus aureus ATCC 25923
[11] = tested on: Candida albicans ATCC 90028
[12] = tested on: Staphylococcus epidermidis ATCC 12228
[13] = tested on: Trichophyton rubrum ATCC 28189
[14] = tested on: Acinetobacter baumannii 7226/16
[15] = tested on: Escherichia coli ESBL 521/17
[16] = tested on: Escherichia coli ML-35p
[17] = tested on: Klebsiella pneumoniae ESBL 344/17
[18] = tested on: Pseudomonas aeruginosa 522/17
[19] = tested on: Staphylococcus aureus 1399/17
[20] = tested on: Staphylococcus aureus ATCC 33591
[21] = tested on: Staphylococcus aureus SG511
[22] = tested on: Candida albicans ATCC 24433
[23] = tested on: Candida parapsilosis ATCC 22019
[24] = tested on: Escherichia coli
[25] = tested on: Staphylococcus aureus
[26] = tested on: Bacillus subtilis CMCC 63501
[27] = tested on: Enterococcus faecalis ATCC 29212
[28] = tested on: Escherichia coli UB1005
[29] = tested on: Salmonella enterica subsp. enterica serovar Pullorum C79-13
[30] = tested on: Salmonella enterica subsp. enterica serovar Typhimurium ATCC 14028
[31] = tested on: Staphylococcus aureus ATCC 29213

CC[C@H](C)[C@@H]1NC(=O)[C@H](C)NC(=O)[C@@H](NC(=O)[C@H](Cc2ccccc2)NC(=O)[C@@H](NC(=O)[C@H](CCCCN)NC(=O)[C@@H]2CCCN2C(=O)[C@H](CC(C)C)NC(=O)[C@H](Cc2ccccc2)NC(=O)[C@@H](N)CCCCN)[C@@H](C)CC)CSSC[C@@H](C(=O)O)NC(=O)[C@H](CCCCN)NC(=O)[C@H](CCCCN)NC(=O)[C@H]([C@@H](C)O)NC1=O [KFLPKIFCAITKKC]
MIC [1]: ≥ 128 µM | MIC [2]: ≥ 512 µM | MIC [3]: ≥ 32 µM | MIC [4]: ≥ 256 µM | MIC [5]: 512 µM (≈ 839 µg/mL) | MIC [6]: 8 µM (≈ 13.1 µg/mL) | MIC [7]: 16 µM (≈ 26.2 µg/mL)

CC[C@H](C)[C@@H]1NC(=O)[C@H](C)NC(=O)[C@@H](NC(=O)[C@H](Cc2ccccc2)NC(=O)[C@@H](NC(=O)[C@H](CCCCN)NC(=O)[C@H](Cc2c[nH]c3ccccc23)NC(=O)[C@@H]2CCCN2C(=O)[C@H](CC(C)C)NC(=O)[C@H](Cc2ccccc2)NC(=O)[C@@H](N)CCCCN)[C@@H](C)CC)CSSC[C@@H](C(=O)O)NC(=O)[C@H](CCCCN)NC(=O)[C@H](CCCCN)NC(=O)[C@H]([C@@H](C)O)NC1=O [KFLPWKIFCAITKKC]
MIC [1]: 16 µM (≈ 29.2 µg/mL) | MIC [2]: ≥ 256 µM | MIC [3]: 16 µM (≈ 29.2 µg/mL) | MIC [4]: ≥ 64 µM | MIC [5]: 128 µM (≈ 234 µg/mL) | MIC [6]: 8 µM (≈ 14.6 µg/mL) | MIC [7]: 8 µM (≈ 14.6 µg/mL)

CC[C@H](C)[C@H](NC(=O)[C@H](C)NC(=O)[C@@H](NC(=O)[C@@H](NC(=O)[C@@H](NC(=O)CNC(=O)[C@H](CCCCN)NC(=O)[C@H](CCCCN)NC(=O)CNC(=O)[C@@H](N)CCCCN)C(C)C)[C@@H](C)CC)[C@@H](C)CC)C(=O)N[C@@H](CC(C)C)C(=O)N[C@@H](CC(C)C)C(=O)N[C@@H](Cc1ccccc1)C(=O)N[C@@H](C)C(=O)N[C@H](C(=O)N[C@H](C(=O)N[C@@H](Cc1ccc(O)cc1)C(=O)N[C@@H](CCCCN)C(=O)N[C@@H](CCCCN)C(=O)N[C@@H](CCCCN)C(N)=O)[C@@H](C)CC)[C@@H](C)CC [KGKKGVIIAILLFAIIYKKK]
MIC [8]: 128 µM (≈ 287 µg/mL) | MIC [9]: ≥ 128 µM | MIC [5]: 128 µM (≈ 287 µg/mL) | MIC [10]: 128 µM (≈ 287 µg/mL)

CC[C@H](C)[C@H](NC(=O)[C@H](C)NC(=O)[C@H](CCCCN)NC(=O)[C@@H](NC(=O)[C@H](CC(C)C)NC(=O)[C@H](C)NC(=O)CNC(=O)[C@@H](NC(=O)[C@H](CCCCN)NC(=O)[C@H](Cc1ccccc1)NC(=O)[C@H](Cc1ccc(O)cc1)NC(=O)[C@H](CCCCN)NC(=O)[C@H](CCCCN)NC(=O)[C@H](CC(C)C)NC(=O)[C@@H](NC(=O)CNC(=O)[C@@H](NC(=O)[C@@H](N)CCCCN)[C@@H](C)CC)C(C)C)[C@@H](C)CC)[C@@H](C)CC)C(=O)N[C@H](C(=O)N[C@@H](CCCCN)C(N)=O)[C@@H](C)CC [KIGVLKKYFKIGALIKAIIK]
MIC [8]: 8 µM (≈ 18 µg/mL) | MIC [9]: 1 µM (≈ 2.24 µg/mL) | MIC [5]: 2 µM (≈ 4.49 µg/mL) | MIC [10]: 8 µM (≈ 18 µg/mL)

CC[C@H](C)[C@H](NC(=O)[C@H](Cc1ccc(O)cc1)NC(=O)[C@H](CC(N)=O)NC(=O)[C@H](CC(N)=O)NC(=O)[C@H](Cc1ccccc1)NC(=O)[C@@H](N)CC(C)C)C(=O)N[C@H](C(=O)N[C@@H](C)C(=O)N[C@@H](C)C(=O)N[C@@H](CC(C)C)C(=O)N[C@@H](CCCCN)C(=O)N[C@@H](CC(C)C)C(=O)N[C@@H](CC(C)C)C(=O)N[C@@H](CCC(=O)O)C(=O)N[C@@H](CCCCN)C(=O)N[C@@H](CC(C)C)C(=O)N[C@@H](Cc1ccc(O)cc1)C(=O)N[C@@H](CCCCN)C(=O)N[C@H](C(N)=O)C(C)C)[C@@H](C)O [LFNNYITAALKLLEKLYKV]
MIC [11]: 8 µM (≈ 18 µg/mL) | MIC [10]: 4 µM (≈ 9.02 µg/mL) | MIC [12]: 5.33 µM (≈ 12 µg/mL) | MIC [13]: ≥ 32 µM

CC[C@H](C)[C@H](NC(=O)[C@H](CCCN=C(N)N)NC(=O)[C@@H](NC(=O)[C@H](Cc1ccccc1)NC(=O)[C@@H]1CCCN1C(=O)[C@@H]1CCCN1C(=O)[C@@H]1CCCN1C(=O)[C@H](Cc1cnc[nH]1)NC(=O)[C@@H](NC(=O)[C@H](CCCN=C(N)N)NC(=O)[C@H](CCCN=C(N)N)NC(=O)[C@H](Cc1ccccc1)NC(=O)[C@@H]1CCCN1C(=O)[C@H](CC(C)C)NC(=O)[C@H](CCCN=C(N)N)NC(=O)[C@H](Cc1ccccc1)NC(=O)[C@@H](N)CCCN=C(N)N)[C@@H](C)CC)C(C)C)C(=O)N[C@@H](Cc1cnc[nH]1)C(=O)N1CCC[C@H]1C(=O)N1CCC[C@H]1C(=O)N1CCC[C@H]1C(=O)N[C@@H](Cc1ccccc1)C(=O)N[C@@H](Cc1ccc(O)cc1)C(=O)N[C@@H](CCCN=C(N)N)C(=O)N[C@@H](CCCN=C(N)N)C(=O)N[C@@H](Cc1ccccc1)C(=O)N[C@@H](CC(C)C)C(=O)O [RFRLPFRRIHPPPFVRIHPPPFYRRFL]
MIC [14]: 4 µM (≈ 14.1 µg/mL) | MIC [15]: 5.66 µM (≈ 19.9 µg/mL) | MIC [16]: 2.83 µM (≈ 9.95 µg/mL) | MIC [17]: 8 µM (≈ 28.1 µg/mL) | MIC [18]: 16 µM (≈ 56.3 µg/mL) | MIC [19]: 8 µM (≈ 28.1 µg/mL) | MIC [20]: 16 µM (≈ 56.3 µg/mL) | MIC [21]: 0.25 µM (≈ 0.879 µg/mL)

CC[C@H](C)[C@H](NC(=O)[C@H](CC(C)C)NC(=O)[C@H](CC(=O)O)NC(=O)[C@H](CO)NC(=O)[C@H](CCCN=C(N)N)NC(=O)[C@@H](N)CO)C(=O)N[C@H](C(=O)N[C@@H](Cc1cnc[nH]1)C(=O)N[C@@H](CCC(N)=O)C(=O)N[C@@H](CCCN=C(N)N)C(=O)N[C@@H](CC(C)C)C(=O)N[C@@H](Cc1ccccc1)C(N)=O)C(C)C [SRSDLIVHQRLF]
MIC [22]: ≥ 272 µM | MIC [23]: ≥ 272 µM | MIC [24]: > 272 µM | MIC [25]: > 272 µM | MIC [13]: ≥ 272 µM

CC[C@H](C)[C@H](NC(=O)[C@H](CCCCN)NC(=O)[C@H](CCC(=O)O)NC(=O)[C@H](CO)NC(=O)[C@H](CCCN=C(N)N)NC(=O)[C@@H](N)CO)C(=O)N[C@H](C(=O)N[C@@H](Cc1cnc[nH]1)C(=O)N[C@@H](CCC(N)=O)C(=O)N[C@@H](CCCN=C(N)N)C(=O)N[C@@H](CC(C)C)C(=O)N[C@@H](Cc1ccccc1)C(N)=O)C(C)C [SRSEKIVHQRLF]
MIC [22]: ≥ 267 µM | MIC [23]: ≥ 267 µM | MIC [24]: > 267 µM | MIC [25]: > 267 µM | MIC [13]: ≥ 267 µM

CC[C@H](C)[C@H](NC(=O)[C@H](CCCCN)NC(=O)[C@H](C)NC(=O)[C@H](C)NC(=O)[C@H](C)NC(=O)[C@H](CCCCN)NC(=O)[C@H](C)NC(=O)[C@H](C)NC(=O)[C@H](C)NC(=O)[C@H](CCCCN)NC(=O)[C@@H](NC(=O)[C@@H](N)Cc1c[nH]c2ccccc12)[C@@H](C)CC)C(=O)N[C@@H](Cc1c[nH]c2ccccc12)C(N)=O [WIKAAAKAAAKIW]
MIC [26]: 8 µM (≈ 11.4 µg/mL) | MIC [27]: 32 µM (≈ 45.7 µg/mL) | MIC [8]: 8 µM (≈ 11.4 µg/mL) | MIC [28]: 8 µM (≈ 11.4 µg/mL) | MIC [5]: 32 µM (≈ 45.7 µg/mL) | MIC [29]: 8 µM (≈ 11.4 µg/mL) | MIC [30]: 32 µM (≈ 45.7 µg/mL) | MIC [31]: 32 µM (≈ 45.7 µg/mL) | MIC [12]: 32 µM (≈ 45.7 µg/mL)
